Assay results as given in patent US7964531B2, “3-phenoxy-4-pyridazinol derivatives and herbicidal composition containing the same” (Mitsui Chemicals Agro, Inc., priority 2001, dated 2011).

What was measured:
Type in all cases: in vivo
[1] = tested on: transplanted paddy-field rice; assay: Test Example 1: crop injury against transplanted paddy-field rice; settings: wettable powder applied 3 days after transplanting, judged after 25 days
How it was run: (§1)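 Greenhouse, flooded paddy soil; weeds from seed (top 1 cm), C. serotinus from germinated tubers, rice transplanted at 2.2-leaf stage. WP diluted in water, applied to pot day 3 post-transplant. Scored day 25 post-treatment, 0–5 inhibition scale.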

[2] = tested on: Scirpus joncoides; assay: Test Example 1: herbicidal effects, paddy-field pot test; settings: wettable powder applied 3 days after transplanting, judged after 25 days
How it was run: as §1

[3] = tested on: barnyardgrass (Echinochloa oryzicola Vasing.); assay: as above; settings: wettable powder applied 3 days after transplanting, judged after 25 days
How it was run: as §1

[4] = tested on: Cyperus serotinus; assay: as above; settings: wettable powder applied 3 days after transplanting, judged after 25 days
How it was run: as §1

[5] = tested on: annual broad-leaved weeds (Lindernia spp., Rotala indica); assay: as above; settings: wettable powder applied 3 days after transplanting, judged after 25 days
How it was run: as §1

[6] = tested on: indian mustard (Brassica juncea (L.) Czern. et Coss); assay: Test Example 2: herbicidal effects (soil treatment); settings: dosage 5 kg/a; soil treatment the day after seeding; judged after 21 days
Description: (§2) Judgment Standard • 0: Growth inhibition rate; 0 to 10% • 1: Growth inhibition rate; 11 to 30% • 2: Growth inhibition rate; 31 to 50% • 3: Growth inhibition rate; 51 to 70% • 4: Growth inhibition rate; 71 to 90% • 5: Growth inhibition rate; 91 to 100%.
(§3) Upland soil was filled in 150 cm^2 pot, and seeds of barnyardgrass and indian mustard (Brassica juncea (L.) Czern. et Coss) were sowed, and grown in a greenhouse. At the next day of seeding, a predetermined chemical dosage of the wettable powder prepared in accordance with Preparation example 1 was diluted in water and applied to soil surface. After 21 days from the treatment, herbicidal effects were judged in accordance with the judgment standard of Test example 1, and the results were shown in Table 3.

[7] = tested on: barnyardgrass; assay: as above; settings: dosage 5 kg/a; soil treatment the day after seeding; judged after 21 days
Description: as §2, §3

[8] = tested on: tall morningglory; assay: Test Example 5: herbicidal effects, upland (soil treatment); settings: after 21 days
Experimental: (§4) Upland soil was filled in 150 cm^2 pot, and seeds of barnyardgrass, Cyperus esculentus L., velvetleaf, black nightshade, tall morningglory and corn were sowed, and grown in a greenhouse. At the next day of seeding, a predetermined chemical dosage of the wettable powder prepared in accordance with Preparation example 5 was diluted with water and applied to soil surface. After 21 days from the treatment, herbicidal effects and crop injury against corn were judged according to the following judgment standard, and the results were shown in Tables 6 to 8.
(§5) Judgment Standard • 0: Growth inhibition rate; 0 to 9% • 1: Growth inhibition rate; 10 to 19% • 2: Growth inhibition rate; 20 to 29% • 3: Growth inhibition rate; 30 to 39% • 4: Growth inhibition rate; 40 to 49% • 5: Growth inhibition rate; 50 to 59% • 6: Growth inhibition rate; 60 to 69% • 7: Growth inhibition rate; 70 to 79% • 8: Growth inhibition rate; 80 to 89% • 9: Growth inhibition rate; 90 to 98% • 10: Growth inhibition rate; 99 to 100%.

[9] = tested on: velvetleaf; assay: as above; settings: after 21 days
Experimental: as §4, §5

[10] = tested on: black nightshade; assay: as above; settings: after 21 days
Experimental: as §4, §5

[11] = tested on: barnyardgrass; assay: as above; settings: after 21 days
Experimental: as §4, §5

[12] = tested on: transplanted paddy-field rice; assay: Test Example 4: crop injury against transplanted paddy-field rice; settings: no second compound, after 25 days
Experimental: (§6) Paddy filed soil was filled in 1/5000 are Wagner pot, seeds of barnyardgrass (Echinochloa oryzicola Vasing.), Scirpus joncoides and annual broad-leaved weeds (Lindernia spp. and Rotala indica) which are awaken from dormancy were mixed at the surface layer of 1 cm. Also, tubers of Cyperus serotinus, Sagittaria pygmaea and Eleocharis kuroguwai which are awaken from dormancy were planted, and further seedlings of paddy-field rice at 2.2-leaf stage were transplanted and they were grown under the flooded condition in a greenhouse. After 3 days from the transplanting, a predetermined chemical dosage of the wettable powder prepared in accordance with Preparation example 5 was diluted with water, and applied to the pot. After 25 days, herbicidal effects and crop injury against transplanted paddy-field rice were judged according to the following judgment standard, and the results were shown in Table 5. Incidentally, “-” in the table means a composition containing no effective ingredient.
(§7) Judgment Standard • 0: Growth-inhibition rate; 0 to 15% • 1: Growth inhibition rate; 16 to 35% • 2: Growth inhibition rate; 36 to 55% • 3: Growth inhibition rate; 56 to 75% • 4: Growth inhibition rate; […] • 5: Growth inhibition rate; 96 to 100%.

[13] = tested on: Sagittaria pygmaea; assay: Test Example 4: herbicidal effects of mixed wettable powder, paddy-field pot test; settings: no second compound, after 25 days
Experimental: as §6, §7

[14] = tested on: Eleocharis kuroguwai; assay: as above; settings: no second compound, after 25 days
Experimental: as §6, §7

[15] = tested on: Scirpus joncoides; assay: as above; settings: no second compound, after 25 days
Experimental: as §6, §7

[16] = tested on: barnyardgrass (Echinochloa oryzicola Vasing.); assay: as above; settings: no second compound, after 25 days
Experimental: as §6, §7

[17] = tested on: Cyperus serotinus; assay: as above; settings: no second compound, after 25 days
Experimental: as §6, §7

[18] = tested on: annual broad-leaved weeds (Lindernia spp. and Rotala indica); assay: as above; settings: no second compound, after 25 days
Experimental: as §6, §7

| Compound | Crop injury against transplanted rice ([1]; chemical dosage 10 g/a) | Crop injury against transplanted rice ([1]; chemical dosage 20 g/a) | Herbicidal effects Scirpus joncoides ([2]; chemical dosage 10 g/a) | Herbicidal effects Scirpus joncoides ([2]; chemical dosage 20 g/a) | Herbicidal effects Barnyard grass ([3]; chemical dosage 10 g/a) | Herbicidal effects Barnyard grass ([3]; chemical dosage 20 g/a) | Herbicidal effects Cyperus serotinus ([4]; chemical dosage 10 g/a) | Herbicidal effects Cyperus serotinus ([4]; chemical dosage 20 g/a) | Herbicidal effects Broad leaf ([5]; chemical dosage 10 g/a) | Herbicidal effects Broad leaf ([5]; chemical dosage 20 g/a) | Crop injury against transplanted rice ([12]; derivative 5 g/a) | Crop injury against transplanted rice ([12]; derivative 10 g/a) | Herbicidal effects Sagittaria pygmaea ([13]; derivative 5 g/a) | Herbicidal effects Sagittaria pygmaea ([13]; derivative 10 g/a) | Herbicidal effects Eleocharis kuroguwai ([14]; derivative 5 g/a) | Herbicidal effects Eleocharis kuroguwai ([14]; derivative 10 g/a) | Herbicidal effects Scirpus joncoides ([15]; derivative 5 g/a) | Herbicidal effects Scirpus joncoides ([15]; derivative 10 g/a) | Herbicidal effects Barnyard grass ([16]; derivative 5 g/a) | Herbicidal effects Barnyard grass ([16]; derivative 10 g/a) | other results |
| --- | --- | --- | --- | --- | --- | --- | --- | --- | --- | --- | --- | --- | --- | --- | --- | --- | --- | --- | --- | --- | --- |
| Cc1ccc2ccoc2c1Oc1nnc(Cl)cc1O [Example 310] | 0 (Growth inhibition rate; 0 to 10%) | 0 (Growth inhibition rate; 0 to 10%) | 5 (Growth inhibition rate; 91 to 100%) | 5 (Growth inhibition rate; 91 to 100%) | 4 (Growth inhibition rate; 71 to 90%) | 5 (Growth inhibition rate; 91 to 100%) | 5 (Growth inhibition rate; 91 to 100%) | 5 (Growth inhibition rate; 91 to 100%) | 5 (Growth inhibition rate; 91 to 100%) | 5 (Growth inhibition rate; 91 to 100%) |  |  |  |  |  |  |  |  |  |  | Herbicidal effects indian mustard [6]: 5 (Growth inhibition rate; 91 to 100%); Herbicidal effects Barnyard-grass [7]: 5 (Growth inhibition rate; 91 to 100%) |
| CS(=O)(=O)c1cc(C(F)(F)F)ccc1C(=O)c1cnoc1C1CC1 [Compound D, 5-cyclopropyl-1,2-oxazol-4-yl α,α,α-trifluoro-2-mesyl-p-tolyl ketone] |  |  |  |  |  |  |  |  |  |  |  |  |  |  |  |  |  |  |  |  | Herbicidal effects Tall Morningglory ([8]; D alone 6.3 g/ha): 2 (Growth inhibition rate; 20 to 29%); Herbicidal effects Tall Morningglory ([8]; D alone 12.5 g/ha): 0 (Growth inhibition rate; 0 to 9%); Herbicidal effects Tall Morningglory ([8]; D alone 25 g/ha): 5 (Growth inhibition rate; 50 to 59%); Herbicidal effects Velvetleaf ([9]; D alone 6.3 g/ha): 6 (Growth inhibition rate; 60 to 69%); Herbicidal effects Velvetleaf ([9]; D alone 12.5 g/ha): 7 (Growth inhibition rate; 70 to 79%); Herbicidal effects Velvetleaf ([9]; D alone 25 g/ha): 9 (Growth inhibition rate; 90 to 98%); Herbicidal effects Black Nightshade ([10]; D alone 6.3 g/ha): 5 (Growth inhibition rate; 50 to 59%); Herbicidal effects Black Nightshade ([10]; D alone 12.5 g/ha): 9 (Growth inhibition rate; 90 to 98%); Herbicidal effects Black Nightshade ([10]; D alone 25 g/ha): 9 (Growth inhibition rate; 90 to 98%); Herbicidal effects Barnyard grass ([11]; D alone 6.3 g/ha): 3 (Growth inhibition rate; 30 to 39%); Herbicidal effects Barnyard grass ([11]; D alone 12.5 g/ha): 10 (Growth inhibition rate; 99 to 100%); Herbicidal effects Barnyard grass ([11]; D alone 25 g/ha): 10 (Growth inhibition rate; 99 to 100%) |
| COc1ccc(C)cc1Oc1nnc(Cl)cc1O [Example 16] | 0 (Growth inhibition rate; 0 to 10%) | 0 (Growth inhibition rate; 0 to 10%) | 5 (Growth inhibition rate; 91 to 100%) | 5 (Growth inhibition rate; 91 to 100%) | 0 (Growth inhibition rate; 0 to 10%) | 1 (Growth inhibition rate; 11 to 30%) | 5 (Growth inhibition rate; 91 to 100%) | 5 (Growth inhibition rate; 91 to 100%) | 5 (Growth inhibition rate; 91 to 100%) | 5 (Growth inhibition rate; 91 to 100%) | 0 (Growth-inhibition rate; 0 to 15%) | 0 (Growth-inhibition rate; 0 to 15%) | 3 (Growth inhibition rate; 56 to 75%) | 4 (Growth inhibition rate; 7.6 to 95%) | 0 (Growth-inhibition rate; 0 to 15%) | 1 (Growth inhibition rate; 16 to 35%) | 3 (Growth inhibition rate; 56 to 75%) | 5 (Growth inhibition rate; 96 to 100%) | 0 (Growth-inhibition rate; 0 to 15%) | 0 (Growth-inhibition rate; 0 to 15%) | Herbicidal effects Cyperus serotinus ([17]; derivative 5 g/a): 4 (Growth inhibition rate; 7.6 to 95%); Herbicidal effects Cyperus serotinus ([17]; derivative 10 g/a): 5 (Growth inhibition rate; 96 to 100%); Herbicidal effects Broad leaf ([18]; derivative 5 g/a): 5 (Growth inhibition rate; 96 to 100%); Herbicidal effects Broad leaf ([18]; derivative 10 g/a): 5 (Growth inhibition rate; 96 to 100%) |
| Oc1cc(Cl)nnc1Oc1cccc2ccoc12 [Example 191] | 2 (Growth inhibition rate; 31 to 50%) | 5 (Growth inhibition rate; 91 to 100%) | 5 (Growth inhibition rate; 91 to 100%) | 5 (Growth inhibition rate; 91 to 100%) | 4 (Growth inhibition rate; 71 to 90%) | 5 (Growth inhibition rate; 91 to 100%) | 5 (Growth inhibition rate; 91 to 100%) | 5 (Growth inhibition rate; 91 to 100%) | 5 (Growth inhibition rate; 91 to 100%) | 5 (Growth inhibition rate; 91 to 100%) |  |  |  |  |  |  |  |  |  |  | Crop injury against transplanted rice ([12]; derivative 2.5 g/a): 0 (Growth-inhibition rate; 0 to 15%); Herbicidal effects Sagittaria pygmaea ([13]; derivative 2.5 g/a): 2 (Growth inhibition rate; 36 to 55%); Herbicidal effects Eleocharis kuroguwai ([14]; derivative 2.5 g/a): 1 (Growth inhibition rate; 16 to 35%); Herbicidal effects Scirpus joncoides ([15]; derivative 2.5 g/a): 3 (Growth inhibition rate; 56 to 75%); Herbicidal effects Barnyard grass ([16]; derivative 2.5 g/a): 1 (Growth inhibition rate; 16 to 35%); Herbicidal effects Cyperus serotinus ([17]; derivative 2.5 g/a): 5 (Growth inhibition rate; 96 to 100%); Herbicidal effects Broad leaf ([18]; derivative 2.5 g/a): 3 (Growth inhibition rate; 56 to 75%) |
| Cc1ccccc1Oc1nnc(Cl)cc1O [Example 1] |  |  |  |  |  |  |  |  |  |  | 0 (Growth-inhibition rate; 0 to 15%) | 0 (Growth-inhibition rate; 0 to 15%) | 4 (Growth inhibition rate; 7.6 to 95%) | 4 (Growth inhibition rate; 7.6 to 95%) | 0 (Growth-inhibition rate; 0 to 15%) | 0 (Growth-inhibition rate; 0 to 15%) | 2 (Growth inhibition rate; 36 to 55%) | 4 (Growth inhibition rate; 7.6 to 95%) | 2 (Growth inhibition rate; 36 to 55%) | 4 (Growth inhibition rate; 7.6 to 95%) | Crop injury against transplanted rice ([1]; chemical dosage 12.5 g/a): 0 (Growth inhibition rate; 0 to 10%); Crop injury against transplanted rice ([1]; chemical dosage 25 g/a): 0 (Growth inhibition rate; 0 to 10%); Herbicidal effects Scirpus joncoides ([2]; chemical dosage 12.5 g/a): 5 (Growth inhibition rate; 91 to 100%); Herbicidal effects Scirpus joncoides ([2]; chemical dosage 25 g/a): 5 (Growth inhibition rate; 91 to 100%); Herbicidal effects Barnyard grass ([3]; chemical dosage 12.5 g/a): 4 (Growth inhibition rate; 71 to 90%); Herbicidal effects Barnyard grass ([3]; chemical dosage 25 g/a): 5 (Growth inhibition rate; 91 to 100%); Herbicidal effects Cyperus serotinus ([4]; chemical dosage 12.5 g/a): 5 (Growth inhibition rate; 91 to 100%); Herbicidal effects Cyperus serotinus ([4]; chemical dosage 25 g/a): 5 (Growth inhibition rate; 91 to 100%); Herbicidal effects Broad leaf ([5]; chemical dosage 12.5 g/a): 5 (Growth inhibition rate; 91 to 100%); Herbicidal effects Broad leaf ([5]; chemical dosage 25 g/a): 5 (Growth inhibition rate; 91 to 100%); Herbicidal effects Cyperus serotinus ([17]; derivative 5 g/a): 4 (Growth inhibition rate; 7.6 to 95%); Herbicidal effects Cyperus serotinus ([17]; derivative 10 g/a): 5 (Growth inhibition rate; 96 to 100%); Herbicidal effects Broad leaf ([18]; derivative 5 g/a): 3 (Growth inhibition rate; 56 to 75%); Herbicidal effects Broad leaf ([18]; derivative 10 g/a): 4 (Growth inhibition rate; 7.6 to 95%) |
